# What was measured:
# [1] = system: human colon cancer cells HCT116; experiment: Tumoricidal activity to human colon cancer cells HCT116 (microscopy, CCK-8); type: cell-based
# Description: HCT116 cells were treated with TRAIL, AD5-10 and monoclonal antibodies Adie-1 and Adie-2 of different concentrations. […] The OD value of the wells having no cells was set to be “0”, the Relative cell viability=OD value of treated well/OD value of untreated sample×100%.
# [2] = system: human T lymphocyte leukemia Jurkat cells; experiment: Cell viability of Jurkat cells (CCK-8); type: cell-based; details: different concentrations, 8 hours
# Description: (§1) The human lymphocyte leukemia Jurkat cells in exponential phase were seeded in the 96-well plate at the density of 2×10^4/well. Then synthetic peptides were sufficiently mixed with AD5-10 according to corresponding concentrations and incubated at 37° C. for 1 h. The mixture was then added to the culture wells containing the tumor cells. CCK-8 agent (Dojindo Laboratories, Kumamoto, Japan) was used and the OD values (wavelength […]) were detected 2 h after the reaction. The OD value of the wells having no cells was set to be “0”, the Relative cell viability=OD value of treated well/OD value of untreated sample×100%.
# AD5-10 [3] = experiment: Synthetic peptides binding AD5-10 and blocking its tumoricidal activity on Jurkat cells; type: cell-based, mouse
# Description: as §1
# AD5-10 [4] = experiment: Oriented Peptide Array Library: binding of peptides to AD5-10; parameters: species or system mouse; details: for binding capabilities to AD5-10 (antigenicity): AD5-10 2 μg/ml
# Source text: A series of the derivative peptides comprising the core peptide (as shown in Tab. 1 and 2) were synthesized according to the amino acid sequence of human DR5 (NCBI Acc #: NP_671716.1) provided in NCBI protein database. Subsequently, the peptide arrays as said above were spotted on nitrocellulose membranes using an ASP222 SPOT robot workstation (one dot corresponds to one polypeptide of which the concentration is about 5 nmol), the homogenicity of the protein amount was detected with ninhydrin staining before the corresponding detection. The membrane was blocked with 3% BSA in TBS-T solution for 1 h at room temperature and followed by incubation with corresponding specific primary antibodies (the final concentration is 2 μg/ml) at 4° C. over night. The array membrane was then incubated with HRP-conjugated goat anti-mouse polyclonal antibodies for 2 h at room temperature and then chromogenic substrate ECL was added to develop the membrane.
# [5] = peptide at different concentrations
substance,measurement,setting,value
"TRAIL: tumor necrosis factor-related apoptosis inducing ligand, natural ligand for death receptors DR4 and DR5",morphological changes and cell death characteristics of HCT116 cells observed under microscope,"[1]; 500 ng/ml, 8 h",Apparent morphological changes and cell death characteristics
same,cell viability of HCT116 cells,"[1]; different concentrations, CCK-8",notably reduced with the increase of the treatment concentrations
same,cell viability of Jurkat cells,[2],can inhibit the cell viability of human T lymphocyte leukemia Jurkat cells in a dose-dependent manner
AITQQDLAPQQRA (wild type epitope 2) [wild-type epitope 2],binding to AD5-10 and blocking of its cytotoxicity,AD5-10 [3]; peptide 10 μM,can bind to AD5-10 and block its cytotoxicity
same,binding to AD5-10 and blocking of its cytotoxicity,AD5-10 [3]; [5],can bind to AD5-10 and block its cytotoxicity
mutant epitope 2: synthetic peptide of wild-type epitope 2 with the key amino acid residues mutated (AITQQDAAPQQRA; mutant epitope 2),binding to AD5-10 and blocking of its cytotoxicity,AD5-10 [3]; peptide 10 μM,cannot bind to AD5-10
mutant epitope 1: synthetic peptide of wild-type epitope 1 with the key amino acid residues mutated (AQITQQDAAPQQRA; mutant epitope 1),binding to AD5-10 and blocking of its cytotoxicity,AD5-10 [3]; peptide 10 μM,cannot bind to AD5-10
AQITQQDLAPQQRA (wild type epitope 1) [wild-type epitope 1],binding to AD5-10 and blocking of its cytotoxicity,AD5-10 [3]; peptide 10 μM,can bind to AD5-10 and block its cytotoxicity
same,binding to AD5-10 and blocking of its cytotoxicity,AD5-10 [3]; [5],can bind to AD5-10 and block its cytotoxicity
ITQQDLAPQQRA (Extended sequence of SEQ ID NO. 1 which extends from the N-terminal of the said amino acid sequence to the C-terminal of the amino acid sequence in accordance with the amino acid sequence of DR5),binding capabilities to AD5-10 (antigenicity),AD5-10 [4],the strongest
ALITQQDLAPQQ (Extended sequence of SEQ ID NO. 1 which extends from the N-terminal of the said amino acid sequence to the C-terminal of the amino acid sequence in accordance with the amino acid sequence of DR5),binding capabilities to AD5-10 (antigenicity),AD5-10 [4],the strongest
QDLAP (Antigenic determinants recognized by the mouse anti-human death receptor DR5 monoclonal antibody AD5-10),epitope recognized by AD5-10,AD5-10 [4],shortest amino acid sequence of the epitope recognized by AD5-10

# Source: US8790663B2, “Antigenic determinants of human death receptor DR5” (Institute of Basic Medical Sciences, Chinese Academy of …, priority 2009, dated 2014)
